Patent US5928933A, “Process for the enzymatic resolution of N-(alkoxycarbonyl)-4-ketoproline alkyl esters or N-(alkoxycarbonyl)-4-hydroxyproline alkyl esters using Candida antarctica lipase B” (priority 1998, dated 1999)
Like-named read-outs stand apart in the source and are kept apart here.

What was measured:
Assay type in all cases: biochemical
[1] = molecular target: T1, Candida antartica lipase fraction B (CALB) (Moesziomyces antarcticus, UniProt P41365); details: for resolution with high enantioselectivity: CALB or any of the other commercially-available esterases, lipases, and proteases screened (Examples 7, 8); for isomer remaining: candida antartica lipase b, 19000 µM, pH 5
T1 construct: purchased Boehringer Mannheim CHIRAZYME L-2
T1 sequence (P41365 26-342): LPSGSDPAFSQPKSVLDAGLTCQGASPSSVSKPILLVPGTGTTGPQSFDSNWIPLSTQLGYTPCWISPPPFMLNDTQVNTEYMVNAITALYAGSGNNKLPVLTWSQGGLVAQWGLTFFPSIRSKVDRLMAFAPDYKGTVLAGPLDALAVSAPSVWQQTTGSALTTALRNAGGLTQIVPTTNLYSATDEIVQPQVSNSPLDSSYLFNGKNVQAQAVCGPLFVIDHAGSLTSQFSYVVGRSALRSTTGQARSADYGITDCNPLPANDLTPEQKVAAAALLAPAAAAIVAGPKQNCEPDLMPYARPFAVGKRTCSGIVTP
Method: Reacting a 0.10M solution of the 1:1 mixture of KDP(MEMC) and KLP(MEMC) in 0.20M succinate (pH 6.0) at 25° C. for 5 h with approximately 1-3 mg/mL of Candida antartica lipase fraction B (CALB) produced a 95% ee (substrate) of KDP(MEMC) at 51% conversion. […] The calculated enantioselectivity (E) at 51% conversion was E=81.
The enzymatic hydrolysis reaction of KDP(MEMC) and KLP(MEMC) using CALB (described above) was repeated at pH 5.0 in 0.20M acetate buffer (Example 2), and a 100% ee (substrate) of the D-isomer was obtained at 51% conversion (E=>1000); the reaction rate was approximately 50% of the rate at pH 6.0, and the slight loss of the D-isomer at pH 5.0 was again observed in the absence of added enzyme (95% recovery at pH 5.0 after 24 h with no enzyme).
The procedure described in Example I was repeated using Candida antartica lipase fraction B (CALB), except that the reaction was run in 0.200M sodium cetate (pH 5.0) instead of the 0.20M sodium succinate buffer (pH 6.0) used for Candida antartica lipase fraction B in Example 1. Aqueous solutions (5.0 mL) containing varying concentrations of a racemic mixture of N-(methoxycarbonyl)-4-keto-D,L-proline methyl ester and CALB were mixed at 15° C., 25° C., 35° C. or 45° C.
An aqueous solution (5.0 mL) containing 25 mM N-(methoxycarbonyl)-4-keto-Dproline methyl ester and 25 mM N-(methoxycarbonyl)-4-keto-L-proline methyl ester in 0.200M sodium acetate (pH 5.0) was mixed with 2.5 g of immobilized Candida antartica lipase fraction B (Boehringer Mannheim, CHIRAZYME® L-2, c.-f., C2, lyo.) at 25° C. […] The dichloromethane extract was then analyzed by chiral gas chromatography on a Chiraldex G-TA column (Advanced Separation Technologies, Inc., 50 m×0.32 mm ID) to determine the amounts of the unreacted D- and L-isomers. After 31 h, an 85% enantiomeric excess of N-(methoxycarbonyl)-4-keto-D-proline methyl ester was obtained at 41% conversion of the racemic mixture.
A 200 mL aqueous solution containing 0.200M sodium acetate (pH 5.0), 1.3325 g of Candida antartica lipase fraction B, and 4.02 g of racemic N-(methoxycarbonyl)-4-keto-D,L-proline methyl ester (100 mM) was stirred at 25° C. After 24 h, an 96% enantiomeric excess of N-(methoxycarbonyl)-4-keto-D-proline methyl ester was obtained at 50% conversion of the racemic mixture. The reaction mixture was filtered using a 10,000 MWCO membrane filter (Amicon) to remove the enzyme catalyst, and the filtrate extracted with three 200 mL portions of dichloromethane. The combined organic extracts were dried over magnesium sulfate, filtered, and the dichloromethane removed from the filtrate by rotary evaporation at reduced pressure. Residual dichloromethane was removed from the resulting colorless oil at high vacuum (50 millitorr) to produce N-(methoxycarbonyl)-4-keto-D-proline methyl ester as a white solid (1.99 g, 99% isolated yield, 99% purity (by GC), 97% ee).
An aqueous solution (2.0 mL) containing 50 mM N-(ethoxycarbonyl)-4-keto-D-proline ethyl ester and 50 mM N-(ethoxycarbonyl)-4-keto-L-proline ethyl ester in 0.200M sodium acetate (pH 5.0) and 30 mg/mL of Candida antartica lipase fraction B was mixed at 25° C. […] The dichloromethane extract was then analyzed by chiral gas chromatography on a Chiraldex G-TA column (Advanced Separation Technologies, Inc., 50 m×0.32 mm ID) to determine the amounts of the unreacted D- and L-isomers. After 24 h, a 100% enantiomeric excess of N-(ethoxycarbonyl)-4-keto-D-proline ethyl ester was obtained at 51% conversion of the racemic mixture.
An aqueous solution (1.0 mL) containing 19 mM of N-(2-phenylacetyl)-4-keto-D-proline methyl ester and 19 mM of N-(2-phenylacetyl)-4-keto-L-proline methyl ester in 0.200M sodium acetate (pH 5.0) and 25 mg/mL of Candida antartica lipase fraction B was mixed at 25° C. […]

[2] = Enzyme screens for resolution of racemic N-(methoxycarbonyl)-4-keto-D,L-proline methyl ester (Example 1); details: 0.100M racemate, 5.0 to 50 mg/mL enzyme, 25° C., optimum
Method: An aqueous solution (1.0 mL) containing 0.100M racemic N-(methoxycarbonyl)-4-keto-D,L-proline methyl ester in either 0.20M sodium succinate (pH 6.0) or 0.20M sodium acetate (pH 5.0) was mixed with 5.0 to 50 mg/mL of commercial enzyme preparations (listed in the table below) at 25° C. […] The dichloromethane extract was then analyzed by chiral gas chromatography on a Chiraldex G-TA column (Advanced Separation Technologies, Inc., 50 m×0.32 mm ID) to determine the percent conversion of the racemate, and the enantiomeric excess of the N-(methoxycarbonyl)-4-keto-D-proline methyl ester.

[3] = Enzyme screens for resolution of diastereomeric mixture CHDP(MEMC)/THLP(MEMC) (Example 9); details: 0.050M each isomer, 5 h or 24 h, 5.0 to 50 mg/mL enzyme, 25° C.
Method: (§1) An aqueous solution (1.0 mL) containing 0.050M N-(methoxycarbonyl)-trans-4-hydroxy-L-proline methyl ester and 0.050M N-(methoxycarbonyl)-cis-4-hydroxy-D-proline methyl ester in 0.100M potassium phosphate (pH 7.0) was mixed with 5.0 to 50 mg/mL of commercial enzyme preparations (listed in the table below) at 25° C. The reactions were analyzed after 5 h or 24 h by removal of a 0.200 mL sample and mixing with an equivalent volume of 0.100M propionic acid (HPLC internal standard) in water. The resulting solution was filtered through a 10K molecular weight cut-off filter to remove the enzyme and the filtrate analyzed by high pressure liquid chromatography on a HPX-87H column (Bio-Rad, 30 cm×7.8 mm) to determine the percent conversion of each isomer of the diastereomeric mixture, and the diastereomeric excess of the N-(methoxycarbonyl)-cis-4-hydroxy-D-proline methyl ester.

[4] = Enzyme screens for resolution of diastereomeric mixture CHLP(MEMC)/THLP(MEMC) (Example 13); details: 0.050M each isomer, 5 h, 5.0 to 50 mg/mL enzyme, 25° C.
Method: as §1, with “solution” for “solution (1.0 mL)”, “N-(methoxycarbonyl)-cis-4-hydroxy-L-proline” for “N-(methoxycarbonyl)-cis-4-hydroxy-D-proline”, “5” for “5 h or 24”, “of” for “of each isomer of”

[5] = 50 mM each isomer, 30 mg/mL CALB, pH 5.0, 25° C., 24 h
[6] = 19 mM each isomer, 25 mg/mL CALB, pH 5.0, 25° C., 28 h
[7] = 0.10M 1:1 mixture, 0.20M succinate pH 6.0, 25° C., 5 h, approximately 1-3 mg/mL CALB
[8] = 100 mM racemate, 10 mg/mL CALB, 25° C., 24 h, pH 5.0
[9] = 100 mM racemate, 20 mg/mL CALB, 45° C., 6 h, pH 5.0
[10] = 200 mM racemate, 6.7 mg/mL CALB, 35° C., 29 h, pH 5.0
[11] = 300 mM racemate, 31 mg/mL CALB, 45° C., 23 h, pH 5.0
[12] = 200 mL, 100 mM racemate, 1.3325 g CALB, pH 5.0, 25° C., 24 h
[13] = immobilized CALB 2.5 g in 5.0 mL, 25 mM each isomer, pH 5.0, 25° C., 31 h
[14] = 0.100M potassium phosphate pH 7.0

Molecule: COC(=O)C1CC(=O)CN1C(C)=O (racemic) [N-(acetyl)-4-keto-D,L-proline methyl ester]
- resolution with high enantioselectivity [1]: could not be resolved with high enantioselectivity

Molecule: CCOC(=O)C1CC(=O)CN1C(=O)OCC (racemic) [N-(ethoxycarbonyl)-4-keto-D,L-proline ethyl ester]
- conversion of the racemic mixture [1, 5]: 51%
- enantiomeric excess of the D-isomer (KDP(EEEC)) [1, 5]: 100%

Molecule: COC(=O)C1CC(=O)CN1C(=O)Cc1ccccc1 (racemic) [N-(2-phenylacetyl)-4-keto-D,L-proline methyl ester]
- conversion of the racemic mixture [1, 6]: 38%
- enantiomeric excess of the D-isomer [1, 6]: 55%

Molecule: COC(=O)[C@H]1CC(=O)CN1C(=O)Cc1ccccc1 [N-(2-phenylacetyl)-4-keto-D-proline methyl ester]
- isomer remaining ([1]; 28 h): 97%

Molecule: COC(=O)C1CC(OC)(OC)CN1C(=O)OC (racemic) [N-(methoxycarbonyl)-4,4-dimethoxy-D,L-proline methyl ester]
- resolution with high enantioselectivity [1]: could not be resolved with high enantioselectivity

Molecule: COC(=O)C1CC(=O)CN1C(=O)OC (racemic) [N-(methoxycarbonyl)-4-keto-D,L-proline methyl ester]
- conversion [1, 7]: 51%
- ee (substrate) of KDP(MEMC) [1, 7]: 95%
- ee D-isomer [1, 8]: 100%
- racemate conv. [1, 8]: 51%
- ee D-isomer ([1]; 100 mM racemate, 20 mg/mL CALB, 15° C., 24 h, pH 5.0): 100%
- racemate conv. ([1]; 100 mM racemate, 20 mg/mL CALB, 15° C., 24 h, sodium acetate pH 5.0): 51%
- ee D-isomer [1, 9]: 100%
- racemate conv. [1, 9]: 50%
- conversion ([1]; 0.20M acetate buffer pH 5.0): 51%
- ee (substrate) of the D-isomer ([1]; 0.20M acetate buffer pH 5.0): 100%
- ee D-isomer [1, 10]: 97%
- racemate conv. [1, 10]: 51%
- ee D-isomer [1, 11]: 99%
- racemate conv. [1, 11]: 48%
- conversion of the racemic mixture [1, 12]: 50%
- enantiomeric excess of the D-isomer [1, 12]: 96%
- enantioselectivity (E) ([1]; at 51% conversion, pH 5.0): > 1000
- calculated enantioselectivity (E) ([1]; at 51% conversion, pH 6.0): 81
- conversion of the racemic mixture [1, 13]: 41%
- enantiomeric excess of the D-isomer [1, 13]: 85%
- reaction rate relative to the rate at pH 6.0 ([1]; pH 5.0): approximately 50%

Molecule: COC(=O)[C@@H]1CC(=O)CN1C(=O)Cc1ccccc1 [N-(2-phenylacetyl)-4-keto-L-proline methyl ester]
- isomer remaining ([1]; 28 h): 28%

B1: protease, type VIII: commercial enzyme preparation, source Bacillus licheniformis (protein, UniProt P00780 106-379, looked up)
Subtilisin Carlsberg: AQTVPYGIPLIKADKVQAQGFKGANVKVAVLDTGIQASHPDLNVVGGASFVAGEAYNTDGNGHGTHVAGTVAALDNTTGVLGVAPSVSLYAVKVLNSSGSGSYSGIVSGIEWATTNGMDVINMSLGGASGSTAMKQAVDNAYAKGVVVVAAAGNSGSSGNTNTIGYPAKYDSVIAVGAVDSNSNRASFSSVGAELEVMAPGAGVYSTYPTNTYATLNGTSMASPHVAGAAALILSKHPNLSASQVRNRLSSTATYLGSSFYYGKGLINVEAAAQ
- conv. (percent conversion of the racemate) ([2]; 0.20M sodium succinate pH 6.0, 5 h or 0.20M sodium acetate pH 5.0, 24 h): 32%
- % ee (enantiomeric excess of the D-isomer; L-isomer with porcine liver esterase) ([2]; pH 6.0, 5 h or pH 5.0, 24 h): 23%
- conv. (percent conversion of the diastereomeric mixture) [3, 14]: 16%
- % de (diastereomeric excess of the D-isomer, CHDP(MEMC)) ([3]; pH 7.0): 16%
- conv. (percent conversion of the diastereomeric mixture) [4, 14]: 4%
- % de (diastereomeric excess of the cis-L-isomer) ([4]; pH 7.0): 6%
